Assay in all cases: Post-emergence efficacy, Method A
Format in all cases: in vivo

In test [1] the test system is Amaranthus palmeri (AMAPA). Particulars: Amaranthus palmeri, post-emergence, 312 h; Application Rate 500 g/Ha; evaluated after 13 days; Method A; read-out: Control of weed species after post-emergence application, AMAPA (100=total damage to plant; 0=no damage to plant). Here is the method:
(§1) Seeds of a variety of test species were sown in standard soil in pots. After cultivation for 14 days (post-emergence) under controlled conditions in a glasshouse (at 24/16° C., day/night; 14 hours light; 65% humidity), the plants were sprayed with an aqueous spray solution derived from the dissolution of the technical active ingredient formula (I) in a small amount of acetone and a special solvent and emulsifier mixture referred to as IF50 (11.12% Emulsogen EL360 TM+44.44% N-methylpyrrolidone+44.44% Dowanol DPM glycol ether), to create a 50 g/I solution which was then diluted to required concentration using 0.25% or 1% Empicol ESC70 (Sodium lauryl ether sulphate)+1% ammonium sulphate as diluent. The test plants were then grown in a glasshouse under controlled conditions (at 24/16° C., day/night; 14 hours light; 65% humidity) and watered twice daily. After 13 days the test was evaluated (100=total damage to plant; 0=no damage to plant).
(§2) Ipomoea hederacea (IPOHE), Euphorbia heterophylla (EPHHL), Chenopodium album (CHEAL), Amaranthus palmeri (AMAPA), Lolium perenne (LOLPE), Digitaria sanguinalis (DIGSA), Eleusine indica (ELEIN), Echinochloa crus-galli (ECHCG), Setaria faberi (SETFA)

In test [2] the test system is Chenopodium album (CHEAL). As to conditions: Chenopodium album, post-emergence, 312 h; Application Rate 500 g/Ha; evaluated after 13 days; Method A; read-out: Control of weed species after post-emergence application, CHEAL (100=total damage to plant; 0=no damage to plant). The method, then: as §1, §2
Test [3] relates to Digitaria sanguinalis (DIGSA). As to conditions: Digitaria sanguinalis, post-emergence, 312 h; Application Rate 500 g/Ha; evaluated after 13 days; Method A; read-out: Control of weed species after post-emergence application, DIGSA (100=total damage to plant; 0=no damage to plant). The method, then: as §1, §2
For test [4], the system named is Echinochloa crus-galli (ECHCG). Particulars: Echinochloa crus-galli, post-emergence, 312 h; Application Rate 500 g/Ha; evaluated after 13 days; Method A; read-out: Control of weed species after post-emergence application, ECHCG (100=total damage to plant; 0=no damage to plant). The method, then: as §1, §2
The test system of test [5] is Eleusine indica (ELEIN). Particulars: Eleusine indica, post-emergence, 312 h; Application Rate 500 g/Ha; evaluated after 13 days; Method A; read-out: Control of weed species after post-emergence application, ELEIN (100=total damage to plant; 0=no damage to plant). The method, then: as §1, §2
Test [6] has as its system Ipomoea hederacea (IPOHE). As to conditions: Ipomoea hederacea, post-emergence, 312 h, Application Rate 500 g/Ha; evaluated after 13 days; Method A; read-out: Control of weed species after post-emergence application, IPOHE (100=total damage to plant; 0=no damage to plant). Here is the method:
as §1, §2

Test [7] relates to Lolium perenne (LOLPE). Particulars: Lolium perenne, post-emergence, 312 h, evaluated after 13 days. Here is the method: as §1, §2
Test [8] concerns Setaria faberi (SETFA). Particulars: Setaria faberi, post-emergence, 312 h; Application Rate 500 g/Ha; evaluated after 13 days; Method A; read-out: Control of weed species after post-emergence application, SETFA (100=total damage to plant; 0=no damage to plant). The method, then:
as §1, §2

Setting [9] is: Application Rate 500 g/Ha, Method A, read-out: Control of weed species after post-emergence application, LOLPE (100=total damage to plant; 0=no damage to plant).

These results are taken from patent publication US20220125051A1, “PRE-HARVEST DESICCATION METHOD” (SYNGENTA CROP PROTECTION AG, priority 2019, published 2022).

Like-named read-outs stand apart in the source and are kept apart here.

As for `CC(CC[n+]1ccc(-c2ncccn2)cn1)S(=O)(=O)[O-]` (centres unmarked) [Compound A185], the pest or weed control at 500 g/ha is 100% in test [1]; 80% in test [2]; 30% in test [3]; 40% in test [4]; 30% in test [5]; 30% in test [6]. Besides, the pest or weed control at 500 g/ha in test [7] (setting [9]) was 30%; in test [8], 50%.

For `O=C(O)CC[n+]1ccc(-c2ncccn2)cn1` [Compound A125, 3-(4-pyrimidin-2-ylpyridazin-1-ium-1-yl)propanoic acid 2,2,2-trifluoroacetate], the pest or weed control at 500 g/ha in test [7] (Application rate 500 g/Ha, 100=total damage to plant, 0=no damage to plant, read-out: Control of weed species after post-emergence application, LOLPE) turned out to be 90%.

Turning to `O=C(O)c1ccc(C[n+]2ccc(-c3ncccn3)cn2)cc1` [Compound A228], the pest or weed control at 500 g/ha in test [1] is 80%; in test [2], 60%; in test [3] it was 20%; in test [4], 10%; in test [5] it was 10%; in test [6], 60%. In addition, the results for the pest or weed control at 500 g/ha in test [7] (setting [9]) and in test [8] were 0% and 10%, respectively.

As to `CCOP(=O)(O)CCC[n+]1ccc(-c2ncccn2)cn1` [Compound A232], the pest or weed control at 500 g/ha in test [1] came out at 100%; in test [2] it was 90%; in test [3] it was 90%; in test [4], 100%; in test [5], 50%; in test [6], 0%. In addition, the pest or weed control at 500 g/ha amounted to 20% in test [7] (setting [9]) and 80% in test [8].

For `Cc1ccc(-c2cc[n+](CCC(=O)O)nc2)nc1` [Compound A199], the pest or weed control at 500 g/ha in test [2] is 40%; in test [3], 50%; in test [4] it was 20%; in test [5], 10%; in test [6], 10%; in test [7] (setting [9]) it was 0%. Besides, the pest or weed control at 500 g/ha in test [8] stood at 30%.

Take `O=S(=O)([O-])N1CCCC1C[n+]1ccc(-c2ncccn2)cn1` (centres unmarked) [Compound A222]: the pest or weed control at 500 g/ha in test [1] worked out at 80%; in test [2], 60%; in test [3], 90%; in test [4] it was 70%; in test [5], 60%; in test [6] it was 70%. Moreover, the pest or weed control at 500 g/ha in test [7] (setting [9]) worked out at 20%; in test [8], 80%.

For the compound `Cc1cc(-c2cc[n+](CCS(=O)(=O)[O-])nc2)nc(C)n1` [Compound A231], the pest or weed control at 500 g/ha in test [1] was found to be 100%; in test [2], 90%; in test [3] it was 80%; in test [4], 50%; in test [5], 60%; in test [6], 60%. Further, the pest or weed control at 500 g/ha in test [7] (setting [9]) and in test [8] was 60% throughout.

`CC(C[n+]1ccc(-c2ccncn2)cn1)C(=O)O` (centres unmarked) [Compound A171]: the pest or weed control at 500 g/ha amounted to 100% in test [1]; 80% in test [2]; 60% in test [3]; 60% in test [4]; 80% in test [5]; 80% in test [6]. Further, the pest or weed control at 500 g/ha in test [7] (setting [9]) stood at 70%; in test [8], 60%.

Turning to `OCC[n+]1ccc(-c2ncccn2)cn1` [Compound A195, 2-(4-pyrimidin-2-ylpyridazin-1-ium-1-yl)ethanol 2,2,2-trifluoroacetate], the pest or weed control at 500 g/ha in test [2] stood at 60%; in test [3] it was 20%; in test [4], 10%; in test [5], 10%; in test [6], 20%; in test [7] (setting [9]), 0%.

For `O=P(O)(O)CCC[n+]1ccc(-c2ncccn2)cn1` [Compound A233], the pest or weed control at 500 g/ha in test [1] was 100%; in test [2] it was 100%; in test [3], 60%; in test [4], 60%; in test [5] it was 50%; in test [6], 70%. The pest or weed control at 500 g/ha in test [7] (setting [9]) stood at 20%; in test [8], 70%.

For the compound `CCOP(=O)(C[n+]1ccc(-c2ncccn2)cn1)OCC` [Compound A230, 1-(diethoxyphosphorylmethyl)-4-pyrimidin-2-yl-pyridazin-1-ium 2,2,2-trifluoroacetate], the pest or weed control at 500 g/ha was determined as 50% in test [1]; 60% in test [2]; 70% in test [3]; 60% in test [4]; 10% in test [5]; 20% in test [6]. Further, the values for the pest or weed control at 500 g/ha in test [7] (setting [9]) and in test [8] were 0% and 50%, respectively.

`NC(=O)c1ccc(-c2cc[n+](CCCS(=O)(=O)[O-])nc2)nc1` [Compound A183]: the pest or weed control at 500 g/ha turned out to be 10% in test [1]; 0% in test [2]; 30% in test [3]; 20% in test [4]; 10% in test [5]; 20% in test [6]. In addition, the pest or weed control at 500 g/ha in test [7] (setting [9]) and in test [8] was 10% throughout.

As to `N#Cc1ccc(-c2cc[n+](CCC(=O)O)nc2)nc1` [Compound A176], the pest or weed control at 500 g/ha in test [1] stood at 40%; in test [2], 30%; in test [3] it was 30%; in test [4], 30%; in test [5] it was 70%; in test [6], 40%. The pest or weed control at 500 g/ha in test [7] (setting [9]) and in test [8] was 40% in each case.

Take `CC(CS(=O)(=O)[O-])[n+]1ccc(-c2ncccn2)cn1` (centres unmarked) [Compound A181, 2-(4-pyrimidin-2-ylpyridazin-1-ium-1-yl)propane-1-sulfonate]: the pest or weed control at 500 g/ha came out at 90% in test [1]; 90% in test [2]; 80% in test [3]; 100% in test [4]; 100% in test [5]; 80% in test [6]. Further, the pest or weed control at 500 g/ha in test [7] (setting [9]) was 90%; in test [8] it was 60%.

In the case of `N#Cc1ccc(-c2cc[n+](CCS(=O)(=O)[O-])nc2)nc1` [Compound A169], the pest or weed control at 500 g/ha in test [1] came out at 100%; in test [2], 70%; in test [3], 50%; in test [4], 40%; in test [5], 90%; in test [6] it was 40%. In addition, the pest or weed control at 500 g/ha in test [7] (setting [9]) and in test [8] was 50% in each case.
